According to publication PMC10304486, “The FilZ Protein Contains a Single PilZ Domain and Facilitates the Swarming Motility of Pseudoalteromonas sp. SM9913” (Microorganisms, 2023):

Experiments:
Test in all cases: isothermal titration calorimetry
Type in all cases: binding
[1] = biological target: T1, FilZ (Pseudoalteromonas tetraodonis, UniProt A0AA37S473, R9A)
T1 construct: gene GCM10007914_23770; single PilZ domain protein

[2] = biological target: T2, FilZ (Pseudoalteromonas tetraodonis, UniProt A0AA37S473, R13A)
T2 construct: gene GCM10007914_23770; single PilZ domain protein

[3] = biological target: T3, FilZ (Pseudoalteromonas tetraodonis, UniProt A0AA37S473, G101A)
T3 construct: gene GCM10007914_23770; single PilZ domain protein

[4] = biological target: T4, FilZ (Pseudoalteromonas tetraodonis, UniProt A0AA37S473, D53A)
T4 construct: gene GCM10007914_23770; single PilZ domain protein

[5] = biological target: T5, FilZ (Pseudoalteromonas tetraodonis, UniProt A0AA37S473, G58A)
T5 construct: gene GCM10007914_23770; single PilZ domain protein

[6] = biological target: T6, FilZ (Pseudoalteromonas tetraodonis, UniProt A0AA37S473)
T6 construct: gene GCM10007914_23770; single PilZ domain protein
T6 sequence (A0AA37S473 1-133): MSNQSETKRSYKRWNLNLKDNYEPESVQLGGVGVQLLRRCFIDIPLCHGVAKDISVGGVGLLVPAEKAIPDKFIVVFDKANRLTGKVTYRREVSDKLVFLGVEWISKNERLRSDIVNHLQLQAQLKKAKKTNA

T4 sequence (A0AA37S473 entry or part of it D53A): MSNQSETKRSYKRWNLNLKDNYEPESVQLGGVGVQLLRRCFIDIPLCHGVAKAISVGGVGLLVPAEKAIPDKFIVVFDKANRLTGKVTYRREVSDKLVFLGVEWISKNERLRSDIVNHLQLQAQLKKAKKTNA
T2 sequence (A0AA37S473 entry or part of it R13A): as the sequence (A0AA37S473 entry or part of it D53A) above, with R13A, A53D counted along it
T1 sequence (A0AA37S473 entry or part of it R9A): as the sequence (A0AA37S473 entry or part of it D53A) above, with R9A, A53D counted along it
T5 sequence (A0AA37S473 entry or part of it G58A): as the sequence (A0AA37S473 entry or part of it D53A) above, with A53D, G58A counted along it
T3 sequence (A0AA37S473 entry or part of it G101A): as the sequence (A0AA37S473 entry or part of it D53A) above, with A53D, G101A counted along it

Kd [6]: 230 nM
SMILES: Nc1nc2c(ncn2[C@@H]2O[C@@H]3COP(=O)(O)O[C@H]4[C@@H](O)[C@H](n5cnc6c(=O)[nH]c(N)nc65)O[C@@H]4COP(=O)(O)O[C@H]3[C@H]2O)c(=O)[nH]1 [c-di-GMP]
completely lost the ability to bind [1]: Mutants R9A, R13A, D53A, G58A, and G101A all completely lost the ability to bind c-di-GMP | completely lost the ability to bind [2]: Mutants R9A, R13A, D53A, G58A, and G101A all completely lost the ability to bind c-di-GMP | completely lost the ability to bind [3]: Mutants R9A, R13A, D53A, G58A, and G101A all completely lost the ability to bind c-di-GMP | completely lost the ability to bind [4]: Mutants R9A, R13A, D53A, G58A, and G101A all completely lost the ability to bind c-di-GMP | completely lost the ability to bind [5]: Mutants R9A, R13A, D53A, G58A, and G101A all completely lost the ability to bind c-di-GMP
